Values after ≈ are worked out from the molar mass of the structure shown. Peptide text beside a SMILES is read from it.
Assays:
Experiment in all cases: microbe, parasite or virus in culture
Type in all cases: cell-based, Pseudomonas aeruginosa
MDR P. aeruginosa PA 919 = details: MDR PA 919, 18 h
Description: (§1) We selected six different P. aeruginosa isolates that were described as MDR and had been isolated from clinical and municipal waste water ([Schwartz et al., 2006]). The minimal inhibitory concentration (MIC) was determined in a microdilution assay using Mueller-Hinton (MH) broth following a previously published protocol ([Wiegand et al., 2008]). Briefly, a twofold serial dilution of the antibiotics and peptides were prepared and added to a bacteria solution, resulting in 2–5 10^5 CFU/ml. The microtiter plates (polypropylene, Corning) were incubated for 18 h at 37°C and MICs were taken visually.

MDR P. aeruginosa PA253 = details: MDR PA253, 18 h
Description: as §1

P. aeruginosa PA01-wt = details: -wt, 18 h
Description: as §1

MDR P. aeruginosa PA 910 = details: MDR PA 910, 18 h
Description: as §1

MIC against PA910 in μM (peptides, Table 4) (MDR P. aeruginosa PA 910) | SMILES | MIC against MDR isolates of PA, PA919 (MDR P. aeruginosa PA 919) | MIC against MDR isolates of PA, PA253 (MDR P. aeruginosa PA253) | MIC against PA01 wt (P. aeruginosa PA01-wt)
– | CC[C@H](C)[C@H](NC(=O)[C@H](CCCNC(=N)N)NC(=O)[C@H](CC(C)C)NC(=O)[C@H](CCCNC(=N)N)NC(=O)[C@@H](N)C(C)C)C(=O)N[C@@H](CCCNC(=N)N)C(=O)N[C@H](C(=O)N[C@@H](C)C(=O)N[C@H](C(=O)N[C@H](C(=O)N[C@@H](CCCNC(=N)N)C(=O)N[C@@H](C)C(N)=O)[C@@H](C)CC)C(C)C)C(C)C [Bac034] (H-VRLRIRVAVIRA-NH2) | 32 µM | 64 µM | 32 µM (≈ 45.5 µg/mL)
16 µM (≈ 23.9 µg/mL) | CC[C@H](C)[C@H](NC(=O)[C@H](CCCNC(=N)N)NC(=O)[C@H](Cc1c[nH]c2ccccc12)NC(=O)[C@H](CCCNC(=N)N)NC(=O)[C@@H](N)C(C)C)C(=O)N[C@@H](CCCNC(=N)N)C(=O)N[C@H](C(=O)N[C@@H](C)C(=O)N[C@H](C(=O)N[C@H](C(=O)N[C@@H](CCCNC(=N)N)C(=O)N[C@@H](C)C(N)=O)[C@@H](C)CC)C(C)C)C(C)C [S-W3] (H-VRWRIRVAVIRA-NH2) | – | – | –
– | CC[C@H](C)[C@H](NC(=O)[C@H](CCCNC(=N)N)NC(=O)[C@H](C)NC(=O)[C@H](CCCNC(=N)N)NC(=O)[C@@H](N)CCCNC(=N)N)C(=O)N[C@H](C(=O)N[C@H](C(=O)N[C@H](C(=O)N[C@@H](CCCNC(=N)N)C(=O)N[C@H](C(=O)N[C@@H](C)C(=O)N[C@@H](CCCNC(=N)N)C(N)=O)C(C)C)[C@@H](C)CC)C(C)C)C(C)C [Peptide R2] (H-RRARIVVIRVAR-NH2) | 16 µM | 32 µM | 32 µM (≈ 46.8 µg/mL)
– | CC[C@H](C)[C@H](NC(=O)[C@H](CCCCN)NC(=O)[C@H](CCCNC(=N)N)NC(=O)[C@H](Cc1c[nH]c2ccccc12)NC(=O)[C@H](Cc1c[nH]c2ccccc12)NC(=O)[C@@H](N)CCCNC(=N)N)C(=O)N[C@@H](Cc1c[nH]c2ccccc12)C(=O)N[C@@H](CCCCN)C(=O)N[C@@H](Cc1c[nH]c2ccccc12)C(N)=O [LOP1] (H-RWWRKIWKW-NH2) | 2 to 4 µM | 8 µM | 2 µM (≈ 2.89 µg/mL)
– | CC[C@H](C)[C@H](N)C(=O)N[C@@H](CC(C)C)C(=O)N[C@@H](CCCCN)C(=O)N[C@@H](Cc1c[nH]c2ccccc12)C(=O)N[C@@H](CCCCN)C(=O)N[C@H](C(=O)N[C@@H](CCCCN)C(=O)N[C@@H](Cc1c[nH]c2ccccc12)C(=O)N[C@@H](Cc1c[nH]c2ccccc12)C(=O)N[C@@H](CCCCN)C(=O)N[C@@H](Cc1c[nH]c2ccccc12)C(=O)N[C@@H](Cc1ccccc1)C(=O)N[C@@H](CCCNC(=N)N)C(N)=O)[C@@H](C)O [Indopt 11] (H-ILKWKTKWWKWFR-NH2) | 16 µM | 4 µM | 2 µM (≈ 3.81 µg/mL)
– | CC[C@H](C)[C@H](N)C(=O)N[C@@H](CC(C)C)C(=O)N[C@@H](CCCCN)C(=O)N[C@@H](Cc1c[nH]c2ccccc12)C(=O)N[C@@H](CCCCN)C(=O)N[C@@H](CCCNC(=N)N)C(=O)N[C@@H](CCCCN)C(=O)N[C@@H](Cc1c[nH]c2ccccc12)C(=O)N[C@@H](Cc1c[nH]c2ccccc12)C(=O)N[C@@H](CCCCN)C(=O)N[C@@H](Cc1c[nH]c2ccccc12)C(=O)N[C@@H](CCCNC(=N)N)C(=O)N[C@@H](CCCNC(=N)N)C(N)=O [Indopt 9] (H-ILKWKRKWWKWRR-NH2) | 16 µM | 4 µM | 1 (1) μM
– | CC[C@H](C)[C@H](NC(=O)[C@H](CCCNC(=N)N)NC(=O)[C@H](C)NC(=O)CNC(=O)[C@@H](N)CCCNC(=N)N)C(=O)N[C@H](C(=O)N[C@H](C(=O)N[C@H](C(=O)N[C@@H](CCCNC(=N)N)C(=O)N[C@H](C(=O)N[C@@H](C)C(=O)N[C@@H](CCCNC(=N)N)C(N)=O)C(C)C)[C@@H](C)CC)C(C)C)C(C)C [Peptide G2] (H-RGARIVVIRVAR-NH2) | 16 µM | 32 µM | 32 µM (≈ 43.7 µg/mL)
– | CC[C@H](C)[C@H](N)C(=O)N[C@@H](CC(C)C)C(=O)N[C@@H](CCCCN)C(=O)N[C@@H](Cc1c[nH]c2ccccc12)C(=O)N[C@@H](CCCCN)C(=O)N[C@@H](CCCCN)C(=O)NCC(=O)N[C@@H](Cc1c[nH]c2ccccc12)C(=O)N[C@@H](Cc1c[nH]c2ccccc12)C(=O)N[C@@H](CCCCN)C(=O)N[C@@H](Cc1c[nH]c2ccccc12)C(=O)N[C@@H](Cc1ccccc1)C(=O)N[C@@H](CCCNC(=N)N)C(N)=O [Indopt 8] (H-ILKWKKGWWKWFR-NH2) | 16 µM | 8 µM | 4 µM (≈ 7.45 µg/mL)
– | CC[C@H](C)[C@H](NC(=O)[C@H](CCCNC(=N)N)NC(=O)[C@H](Cc1c[nH]c2ccccc12)NC(=O)[C@H](CCCNC(=N)N)NC(=O)[C@@H](N)CCCNC(=N)N)C(=O)N[C@H](C(=O)N[C@H](C(=O)N[C@H](C(=O)N[C@@H](CCCNC(=N)N)C(=O)N[C@H](C(=O)N[C@@H](CCCNC(=N)N)C(=O)N[C@@H](CCCNC(=N)N)C(N)=O)C(C)C)[C@@H](C)CC)C(C)C)C(C)C [Sub 3] (H-RRWRIVVIRVRR-NH2) | 16 µM | 8 µM | 8 µM (≈ 13.3 µg/mL)
32 µM (≈ 49.2 µg/mL) | CC[C@H](C)[C@H](NC(=O)[C@H](CCCNC(=N)N)NC(=O)[C@H](Cc1c[nH]c2ccccc12)NC(=O)[C@H](CC(C)C)NC(=O)[C@@H](N)CCCNC(=N)N)C(=O)N[C@H](C(=O)N[C@H](C(=O)N[C@H](C(=O)N[C@@H](CCCNC(=N)N)C(=O)N[C@H](C(=O)N[C@@H](C)C(=O)N[C@@H](CCCNC(=N)N)C(N)=O)C(C)C)[C@@H](C)CC)C(C)C)C(C)C [Peptide W3] (H-RLWRIVVIRVAR-NH2) | – | – | –

Reference: publication PMC6901909, “Synergy Pattern of Short Cationic Antimicrobial Peptides Against Multidrug-Resistant Pseudomonas aeruginosa” (Frontiers in Microbiology, 2019)
